Measured values: patent US20080249006A1, “Pharmaceutical Preparation for the Treatment of Shock” (FIBREX MEDICAL RESEARCH & DEVELOPMENT GESMBH, priority 2004, published 2008)

Tests used:
[1] = biological target: T1, recombinant human VE-cadherin FC fusion protein (Homo sapiens, UniProt P33151); experiment: ELISA: binding of FLAG-tagged peptide to coated VE-cadherin; conditions: FLAG-tagged peptide 0-80 μMol
T1 construct: Fc (immunoglobulin Fc fusion partner); purchased R&D Systems, Minneapolis
Text: (§1) We have developed a modified ELISA working with the same principles described by others, but the purpose of the herein described ELISA is not to quantify fibrin degradation products, but to search for proteins, peptides or compounds which interfere with the binding of the Bbeta15-42 sequence and the VE-cadherin. […] Into this system one can introduce any other additional substance and measure if this substance inhibits VE-cadherin/Bbeta15-42 binding.
(§2) In detail, 96 well protein immobilizer plates (Exiqon, Vedbaek, D K) were coated with recombinant human VE-cadherin FC fusion protein (8 nM/ml; R&D Systems, Minneapolis) in PBS and were left overnight at 4° C. Plates were then washed and incubated with peptide Bβ15-42 ([…]) tagged with a FLAG-sequence (DYKDDDDK) at the C-terminus of the peptide or with a FLAG-tagged random peptide ([…]) at a concentration of 0-80 μMol. After washing, bound FLAG-tagged peptide was detected by incubation with a peroxidase-labelled anti-FLAG antibody (Sigma, St. Louis, USA) and chromogenic substrate. Optical density was determined by an ELISA plate reader set at a wavelength of 450 nm. Data represent the mean of three independent experiments, each performed in triplicates.

[2] = biological target: T2, VE-cadherin (Homo sapiens, UniProt P33151); experiment: Competition ELISA: inhibition of FLAG-tagged Bbeta15-42 binding to VE-cadherin
T2 construct: Fc (immunoglobulin Fc fusion partner); purchased R&D Systems, Minneapolis
Text: as §1, §2
In a next step, we analyzed whether this ELISA can be used to screen for other peptides/compounds to compete with the binding of the Bβ15-42 sequence to VE-cadherin.
VE-cadherin was coated to the plastic surface at a concentration of 8 nM. Then indicated peptides were added at concentrations of 200 μM, NDSK or NDSK-II were added at indicated concentrations. Detection of binding of the FLAG-tagged Bbeta15-42 (12 μM) was performed as described above.

[3] = tested on: Dengue virus type 2 (DEN-2), strain P23085; experiment: Treatment of dengue virus infected mice; type: in vivo, BALB/c mice; conditions: for IL-1 / IL-6 / TNF: serum
[4] = tested on: Gram-negative shock, Lipopolysaccharide from E. coli, serotype 0.127:B8; experiment: Gram-negative shock (LPS-induced multiple organ failure) in rats; type: in vivo, Wistar rats; design: Glucose / Amylase / ALT / AST / Creatinine / Urea / heart rate (mean): unit not given here; conditions: for mean number of fibrin thrombi within vessels: end of the experiment, acidic fuchsin-orange G stain
Protocol: Male Wistar rats weighing 230-280 g were housed in the Tierversuchsanlage (University of Düisseldorf) and fed on a standard diet with water ad libitum. All procedures were carried out in accordance with the AAALAC guidelines and Guide for the Care and Use of Laboratory Animals (Department of Health and Human Services, National Institutes of Health, Publication No. 86-23). In addition, all experiments have been approved by an ethical and research board of the University of Düisseldorf and the county. As previously described (Zacharowski et al. Crit. Care Med 2000, Zacharowski et al. Crit. Care Med 2001; 29:1599-1608), rats were anaesthetized with sodium thiopentone (120 mg/kg i.p.) and anesthesia was maintained with supplementary doses of sodium thiopentone as required.
The trachea was cannulated to facilitate respiration and rectal temperature was maintained at 37° C. with a homoeothermic blanket. […] The right jugular vein was cannulated for the administration of drugs. The bladder was also cannulated to facilitate urine flow and to prevent the possibility of the development of post-renal failure. All animals received a total fluid replacement of 1.0 ml/kg/h (0.9% sodium chloride, saline, as an i.v. infusion into the jugular vein) throughout the experiment. Upon completion of the surgical procedure, cardiovascular parameters were allowed to stabilize for 15 min and constantly recorded over 6 h. In this model of LPS-induced multiple organ failure, a period of 6 h is essential to achieve a significant rise in the serum levels of AST and ALT, while a significant rise in the serum levels of urea and creatinine can already be observed after 2 h.
Three groups were studied: Rats were subjected to sham operation: (sham). Rats were subjected to Gram-negative shock. Lipopolysaccharide from E. coli, serotype 0.127:B8 (6 mg/kg i.v.) was given over 5 min i.v., 1 h later, animals received saline (2.4 ml/kg): (LPS+saline). Rats were subjected to Gram-negative shock. Lipopolysaccharide from E. coli, serotype 0.127:B8 (6 mg/kg i.v.) was given over 5 min i.v., animals received Bβ15-42 (2.4 mg/kg): (LPS+Bβ15-42).
Six hours after the induction of Gram-negative shock, blood was collected from the catheter placed in the right carotid artery. The blood sample was centrifuged (1610×g for 3 min at room temperature) to separate plasma. The following marker enzymes were measured in the plasma as biochemical indicators of multiple organ injury/dysfunction:
Liver injury was assessed by measuring the rise in plasma levels of alanine aminotransferase (ALT, a specific marker for hepatic parenchymal injury) and aspartate aminotransferase (AST, a non-specific marker for hepatic injury).
Plasma levels of glucose and amylase were measured as indirect markers of pancreatic function and injury.
In addition, arterial pO2 was measured as indirect marker of lung function/injury. Laboratory values
Organ (lung, liver, heart and kidney) biopsies of all groups studied were taken at the end of the experiment. The biopsies were fixed in buffered formaldehyde solution (4% in phosphate buffered saline) at room temperature and sent to Vienna. […] In sham treated animals no fibrin thrombi were present.

[5] = tested on: endothelial surfaces; conditions: in vitro; cited from earlier work
[6] = tested on: endothelium; conditions: cited from earlier work
[7] = in vivo, ischemia/reperfusion; cited from earlier work
[8] = DEN-2 1 LD50 i.p., 4800 μg/kg i.p. twice per day, day 3 to day 8 post infection, p < 0.05 between groups
[9] = plasma, 6 h after induction of Gram-negative shock, Bβ15-42 2.4 mg/kg

T2 sequence (P33151 with tags, fused parts or gaps limits assumed): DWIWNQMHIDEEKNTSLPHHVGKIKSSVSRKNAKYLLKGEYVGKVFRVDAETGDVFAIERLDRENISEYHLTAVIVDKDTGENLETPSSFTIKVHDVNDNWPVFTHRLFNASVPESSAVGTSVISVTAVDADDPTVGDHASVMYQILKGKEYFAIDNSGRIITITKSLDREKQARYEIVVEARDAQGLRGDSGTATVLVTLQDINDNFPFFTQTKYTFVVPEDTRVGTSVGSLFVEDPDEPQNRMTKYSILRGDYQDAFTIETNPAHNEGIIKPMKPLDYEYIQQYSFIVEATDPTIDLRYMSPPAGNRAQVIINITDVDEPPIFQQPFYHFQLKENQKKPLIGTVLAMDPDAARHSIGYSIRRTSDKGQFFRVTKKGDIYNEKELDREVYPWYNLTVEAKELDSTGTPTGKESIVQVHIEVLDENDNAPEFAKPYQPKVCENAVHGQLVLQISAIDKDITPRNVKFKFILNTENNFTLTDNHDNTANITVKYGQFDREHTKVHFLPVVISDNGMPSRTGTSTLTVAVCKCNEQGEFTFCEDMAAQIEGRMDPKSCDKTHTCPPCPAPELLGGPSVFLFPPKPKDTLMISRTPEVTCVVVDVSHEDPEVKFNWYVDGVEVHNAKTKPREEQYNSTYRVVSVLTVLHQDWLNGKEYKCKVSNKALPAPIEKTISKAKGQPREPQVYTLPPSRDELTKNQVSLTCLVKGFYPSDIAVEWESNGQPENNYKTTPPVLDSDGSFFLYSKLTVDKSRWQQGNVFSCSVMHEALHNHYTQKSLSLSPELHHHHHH
T1 sequence (P33151 with tags, fused parts or gaps limits assumed): as above

GHRPLDKKREEAPSLRPAPPPISGGGYR [Bβ15-42, peptide matching amino acids 15-42 of the Bbeta chain of human fibrin]
Binding to VE-cadherin (in words) [1]: bound to VE-cadherin in a concentration-dependent manner | Inhibition of binding of flag-tagged peptide Bβ15-42 to VE-cadherin (in words) [2]: completely inhibited | % inhibition of 15-42FLAG-binding to VE-cadherin mean ± SD ([2]; blocking reagent 200 μM, FLAG-tagged Bbeta15-42 12 μM, VE-cadherin 8 nM): 100 ± 10% | mean time to death ([3]; DEN-2 1 LD50 i.p., 4800 μg/kg i.p. twice per day, day 3 to day 8 post infection): All mice survived | Mortality (%) [3, 8]: 0% | Survival (%) [3, 8]: 100% | viremia ([3]; day 2): 1.2 ± 0.2 1 g PFU/ml | viremia ([3]; day 3^b): 2.2 ± 0.2 1 g PFU/ml | hematokrit ([3]; day 3 after challenge): 15% | viremia ([3]; day 4): 4.2 ± 0.2 1 g PFU/ml | viremia ([3]; day 5): 5.6 ± 0.4 1 g PFU/ml | hematokrit ([3]; day 5 after challenge): 33% | viremia ([3]; day 6): 6.0 ± 0.4 1 g PFU/ml | viremia ([3]; day 7): 5.9 ± 0.4 1 g PFU/ml | hematokrit ([3]; day 7 after challenge): 43% | viremia ([3]; day 28): 0 1 g PFU/ml | viremia ([3]; first line of the table, day number not given): 0 1 g PFU/ml | IL-1 ([3]; day 3 after challenge): 32 pg/mL | IL-6 ([3]; day 3 after challenge): 140 pg/mL | TNF ([3]; day 3 after challenge): 32 pg/mL | IL-1 ([3]; day 5 after challenge): 29 pg/mL | IL-6 ([3]; day 5 after challenge): 110 pg/mL | TNF ([3]; day 5 after challenge): 65 pg/mL | IL-1 ([3]; day 7 after challenge): 28 pg/mL | IL-6 ([3]; day 7 after challenge): 100 pg/mL | TNF ([3]; day 7 after challenge): 45 pg/mL | Survival ([4]; LPS 6 mg/kg i.v. plus Bβ15-42 2.4 mg/kg, n = 20 in each group, p < 0.05): 88% | heart rate (mean) ([4]; LPS + Bβ15-42, time 0 h): 436.9 | mean arterial pressure (mean) ([4]; LPS + Bβ15-42, time 0 h): 128.9 | heart rate (mean) ([4]; LPS + Bβ15-42, time 1 h): 484.8 | mean arterial pressure (mean) ([4]; LPS + Bβ15-42, time 1 h): 83.7 | heart rate (mean) ([4]; LPS + Bβ15-42, time 2 h): 484.1 | mean arterial pressure (mean) ([4]; LPS + Bβ15-42, time 2 h): 102.3 | heart rate (mean) ([4]; LPS + Bβ15-42, time 3 h): 509.8 | mean arterial pressure (mean) ([4]; LPS + Bβ15-42, time 3 h): 103.2 | heart rate (mean) ([4]; LPS + Bβ15-42, time 4 h): 516.7 | mean arterial pressure (mean) ([4]; LPS + Bβ15-42, time 4 h): 101.2 | heart rate (mean) ([4]; LPS + Bβ15-42, time 5 h): 533.7 | mean arterial pressure (mean) ([4]; LPS + Bβ15-42, time 5 h): 97.1 | heart rate (mean) ([4]; LPS + Bβ15-42, time 6 h): 541.6 | mean arterial pressure (mean) ([4]; LPS + Bβ15-42, time 6 h): 107.7 | Fibrin thrombi in sections stained for fibrin deposits, controls versus treated (in words) ([4]; acidic fuchsin-orange G, p<0.05): significantly elevated numbers of fibrin thrombi in controls receiving LPS alone as compared with animals treated with LPS plus Bβ15-42 | pO2 ([4]; arterial, 6 h after induction of Gram-negative shock, Bβ15-42 2.4 mg/kg): 98.7 | Standard H&E-stained organ sections (lung, liver, heart, kidney), comparison of groups ([4]; biopsies at the end of the experiment): no differences | mean number of fibrin thrombi within vessels ([4]; heart): 5 + 2 | mean number of fibrin thrombi within vessels ([4]; kidney): 2 + 9 | mean number of fibrin thrombi within vessels ([4]; liver): 78 + 37 | mean number of fibrin thrombi within vessels ([4]; lung): 1 + 0 | ALT [4, 9]: 261.9 | AST [4, 9]: 529.0 | Amylase [4, 9]: 1945.1 | Creatinine [4, 9]: 0.6 | Glucose [4, 9]: 45.8 | Urea [4, 9]: 107.8 | Binding of fibrin fragments to endothelial surfaces (in words) [5]: blocks binding of fibrin fragments to endothelial surfaces | Inflammation in vitro (in words) [6]: blocks inflammation in vitro | Myocardial infarct sizes (in words) [7]: reduces myocardial infarct sizes | Myocardial inflammation (in words) [7]: prevents myocardial inflammation
